Among the test systems are Escherichia coli BL21; Vibrio cholerae O1 Inaba; Escherichia coli O157:H7; Acinetobacter baumannii; Escherichia coli TOP 10; Candida krusei ATCC 6258; Escherichia coli W3110.
Experiment in all cases: ≥ marks a high value that may be exact or a test limit, other limits are often not marked, values filed in µg/mL are converted to µM
Assay [1] relates to Streptococcus pyogenes M1T1 5448.
In assay [2] the test system is Pseudomonas aeruginosa PAO1.
For assay [3], the system named is Staphylococcus aureus SH1000.
Assay [4] concerns Acinetobacter baumannii ATCC 19606.
For assay [5], the system named is Candida tropicalis ATCC 750.
Assay [6] deals with Cryptococcus neoformans ATCC 208821.
The test system of assay [7] is Pseudomonas aeruginosa ATCC 27853.
Assay [8] deals with Candida albicans ATCC 90028.
Assay [9] deals with Staphylococcus aureus ATCC 43300.
For assay [10], the system named is Klebsiella pneumoniae ATCC 700603.
Assay [11] has as its system Staphylococcus aureus ATCC 29213.
Assay [12] deals with Escherichia coli ATCC 25922.
Assay [13] relates to Streptococcus pneumoniae ATCC 700677.
Assay [14] deals with Enterococcus faecium ATCC 35667.
Assay [15] relates to Staphylococcus aureus VRSA1.
Assay [16] relates to Bacillus megaterium ATCC 13632.
In assay [17] the test system is Bacillus subtilis ATCC 6051.
Assay [18] concerns Escherichia coli D31 CGSC 5165.
The subject of assay [19] is Pseudomonas aeruginosa ATCC 47085.
In assay [20] the test system is Staphylococcus aureus ATCC 35556.
In assay [21] the test system is Staphylococcus epidermidis ATCC 12228.
In assay [22] the test system is Staphylococcus aureus ATCC 25923.
Assay [23] relates to Salmonella enterica subsp. enterica serovar Typhimurium ATCC 13311.
Assay [24] has as its system Listeria monocytogenes 10403s.
For assay [25], the system named is Bacillus cereus ATCC 11778.
Assay [26] deals with Shigella sonnei ATCC 11060.
Assay [27] has as its system Enterococcus faecalis ATCC 29212.
Assay [28] deals with Escherichia coli ATCC 12795.
Assay [29] deals with Klebsiella pneumoniae ATCC 10031.
The test system of assay [30] is Serratia marcescens ATCC 14756.
Assay [31] has as its system Mannheimia haemolytica 82-25.
The subject of assay [32] is Pseudomonas aeruginosa ATCC 27312.
Assay [33] has as its system Klebsiella pneumoniae ATCC BAA-1705.

Structures are written as SMILES. ≈ marks a conversion by molar mass, not a printed value.

As to `CC[C@H](C)[C@H](NC(=O)[C@H](CCCCN)NC(=O)[C@H](C)NC(=O)[C@H](CCCN=C(N)N)NC(=O)[C@H](CCCCN)NC(=O)CNC(=O)[C@H](CCCCN)NC(=O)[C@H](CCC(=O)O)NC(=O)[C@H](CCC(N)=O)NC(=O)[C@@H](NC(=O)[C@H](CCCCN)NC(=O)[C@H](CCCCN)NC(=O)[C@H](CCCCN)NC(=O)[C@H](CC(C)C)NC(=O)[C@H](CCCN=C(N)N)NC(=O)[C@H](CCC(N)=O)NC(=O)[C@H](Cc1ccccc1)NC(=O)[C@@H](NC(=O)[C@@H](NC(=O)[C@H](CCC(=O)O)NC(=O)[C@H](CCCCN)NC(=O)CNC(=O)[C@H](C)N)[C@@H](C)O)[C@@H](C)CC)[C@@H](C)CC)C(=O)N[C@@H](C)C(=O)N[C@@H](Cc1c[nH]c2ccccc12)C(=O)O` [AGKETIFQRLKKKIQEKGKRAKIAW], the MIC – broadly, the least concentration at which growth counts as inhibited – turned out to be 1 µM (≈ 2.96 µg/mL) against Escherichia coli BL21, 0.5 µM (≈ 1.48 µg/mL) in assay [1] and 32 µM (≈ 94.6 µg/mL) in assay [2].
`CC[C@H](C)[C@H](NC(=O)[C@H](CC(=O)O)NC(=O)[C@H](Cc1ccccc1)NC(=O)[C@H](CC(C)C)NC(=O)CN)C(=O)N[C@H](C(=O)N[C@@H](CCCCN)C(=O)N[C@@H](CCCCN)C(=O)N[C@@H](CC(C)C)C(=O)N[C@@H](CC(C)C)C(=O)N[C@@H](CCCCN)C(=O)N[C@@H](CC(C)C)C(=O)N[C@@H](CC(C)C)C(=O)N[C@@H](CCCCN)C(N)=O)C(C)C` [GLFDIVKKLLKLLK] had a minimal inhibitory concentration (MIC) in assay [3] of at least 100 µM.
As for `CC[C@H](C)[C@H](N)C(=O)N[C@@H](Cc1ccccc1)C(=O)NCC(=O)N[C@H](C(=O)N[C@H](C(=O)N[C@@H](CC(C)C)C(=O)NCC(=O)N[C@@H](Cc1ccccc1)C(=O)N[C@@H](CC(C)C)C(=O)N[C@@H](CCCCN)C(=O)NCC(=O)N[C@@H](CC(C)C)C(N)=O)[C@@H](C)CC)[C@@H](C)O` [IFGTILGFLKGL], the MIC in assay [4] is 100 µM (≈ 128 µg/mL); in [5] it was 25 µM (≈ 32 µg/mL); in assay [6], 25 µM (≈ 32 µg/mL); in assay [7] it was over 200 µM; in assay [8] it was at least 100 µM; in assay [9], 12.5 µM (≈ 16 µg/mL). The minimal inhibitory concentration (MIC) is 200 µM (≈ 256 µg/mL) in assay [10]; 12.5 µM (≈ 16 µg/mL) in assay [11]; 100 µM (≈ 128 µg/mL) in assay [12]; 25 µM (≈ 32 µg/mL) in [13]; 25 µM (≈ 32 µg/mL) in assay [14]; 12.5 µM (≈ 16 µg/mL) in [15]. In addition, the MIC in [16] was found to be 12.5 µM (≈ 16 µg/mL); in assay [17], 25 µM (≈ 32 µg/mL).
In the case of `CC[C@H](C)[C@H](NC(=O)[C@H](CCCCN)NC(=O)CNC(=O)[C@H](CC(C)C)NC(=O)[C@@H](NC(=O)[C@H](C)NC(=O)[C@H](CCCCN)NC(=O)CNC(=O)[C@H](C)NC(=O)CNC(=O)[C@H](CCCCN)NC(=O)[C@H](CCSC)NC(=O)[C@H](CCCCN)NC(=O)[C@@H](NC(=O)[C@H](Cc1c[nH]c2ccccc12)NC(=O)[C@H](CC(C)C)NC(=O)[C@H](CCC(N)=O)NC(=O)[C@H](CCCCN)NC(=O)[C@H](CC(C)C)NC(=O)[C@@H](N)CC(C)C)[C@@H](C)O)C(C)C)C(=O)N[C@@H](CCCCN)C(=O)NCC(=O)N[C@@H](CC(C)C)C(=O)N[C@@H](CC(C)C)C(=O)O` [LLKQLWTKMKGAGKAVLGKIKGLL], the MIC in [18] stood at 0.94 µM (≈ 2.44 µg/mL); in assay [4], 0.94 µM (≈ 2.44 µg/mL); in assay [19], 7.5 µM (≈ 19.5 µg/mL); in assay [20] it was 1.88 µM (≈ 4.88 µg/mL).
For the compound `CC(C)C[C@H](NC(=O)[C@@H](N)CCCN=C(N)N)C(=O)N[C@@H](Cc1ccccc1)C(=O)N[C@@H](CCCN=C(N)N)C(=O)N[C@@H](CCCN=C(N)N)C(=O)N[C@H](C(=O)N[C@@H](CCCCN)C(=O)N[C@@H](CCCCN)C(=O)N[C@H](C(=O)N[C@@H](C)C(=O)NCC(N)=O)C(C)C)C(C)C` [RLFRRVKKVAG], the minimal inhibitory concentration (MIC) was over 188 µM in [21]; over 188 µM in assay [22]; at least 188 µM against Vibrio cholerae O1 Inaba; at least 188 µM in assay [23]; at least 188 µM in assay [24]; over 188 µM in [7]. Moreover, the MIC in assay [25] was at least 188 µM; in assay [26], at least 188 µM; in assay [12] it was over 188 µM; in the assay with Escherichia coli O157:H7 it was at least 188 µM; with Acinetobacter baumannii it was at least 188 µM; in assay [27] it was over 188 µM.
Turning to `CC(C)C[C@H](NC(=O)[C@@H](N)[C@@H](C)O)C(=O)N1CCC[C@H]1C(=O)N[C@@H](CCC(=O)O)C(=O)N[C@@H](Cc1c[nH]c2ccccc12)C(=O)N[C@@H](CC(=O)O)C(=O)N[C@@H](CC(=O)O)C(=O)N[C@@H](CCCN=C(N)N)C(=O)N[C@@H](CCCN=C(N)N)C(=O)N[C@H](C(=O)N[C@H](C(=O)N[C@@H](CC(N)=O)C(=O)N[C@@H](CO)C(N)=O)C(C)C)C(C)C` [TLPEWDDRRVVNS], the MIC in the assay on Escherichia coli TOP 10 is at least 63 µM.
As to `CC(C)[C@H](N)C(=O)N[C@@H](CC(=O)O)C(=O)N[C@@H](CC(=O)O)C(=O)N[C@@H](CC(=O)O)C(=O)N[C@@H](CC(=O)O)C(=O)N[C@@H](CCCCN)C(=O)O` [VDDDDK], the minimal inhibitory concentration (MIC) in assay [28] was at least 900 µM; in assay [29] it was at least 850 µM; in assay [30], at least 3000 µM; in the assay on Candida krusei ATCC 6258, at least 2770 µM; in assay [11], 1080 µM (≈ 762 µg/mL); in assay [31], at least 160 µM. Besides, the minimum inhibitory concentration (MIC) was at least 1500 µM in assay [32] and 2670 µM (≈ 1880 µg/mL) in assay [27].
With `CC[C@H](C)[C@H](NC(=O)[C@H](CCCN=C(N)N)NC(=O)[C@H](CCCN=C(N)N)NC(=O)[C@H](Cc1ccc(O)cc1)NC(=O)[C@H](CCCN=C(N)N)NC(=O)[C@H](CC(C)C)NC(=O)[C@H](CC(C)C)NC(=O)[C@H](CCCCN)NC(=O)[C@H](CC(C)C)NC(=O)CNC(=O)[C@H](Cc1c[nH]c2ccccc12)NC(=O)[C@H](CS)NC(=O)[C@H](C)NC(=O)[C@H](Cc1c[nH]c2ccccc12)NC(=O)[C@H](CCCN=C(N)N)NC(=O)[C@@H](N)Cc1c[nH]c2ccccc12)C(=O)N[C@@H](Cc1ccc(O)cc1)C(=O)O` [WRWACWGLKLLRYRRIY], the results for the MIC (with Escherichia coli W3110; in [33]) were 8 µM (≈ 18.7 µg/mL) and at least 64 µM, respectively.

For the origin of these results see DBAASP.
